Source: patent US11998008B2, “Pesticides and methods of controlling pests” (The State of Israel, Ministry of Agriculture & Rural …, priority 2017, dated 2024)
Where two headings read alike, the source gives them in different places.

Columns and labels:
S. rolfsii = assay: Fungicidal activity assay on PDA in sealed Petri dish (growth inhibition and mortality); assay type: cell-based, Sclerotinia rolfsii; settings: for MFC: Agroathelia rolfsii, read-out: M - Mortality, minimal concentration that killed the fungus; for I - Inhibition class: 2 days; for I - Inhibition, minimal concentration that inhibited the growth: concentration to which the class above belongs
Method: (§1) Each compound was placed on a disconnected cover from an Eppendorf tube that was located in the middle of the Petri dish and a hyphae-containing plug of each test fungus was added to the culture plate. In exemplary procedures, the tested compounds trans-2-heptenal, trans-2-octenal were tested in comparison with octanal, trans-2-octen-1-ol, methyl trans-2-octenoate, trans-3-octen-2-one and 3-pentenenitrile. In addition, cyclic ketones as 2-cyclopenten-1-one, 2-cyclohexen-1-one and α-tetralone were also examined. Then, the culture plate was sealed with parafilm and incubated at room-temperature for 2 days, after which the growth of the test fungi in those dishes was compared with those in the test compound-free control dishes. At the end of the assay, the viability of each test fungus was evaluated by transferring inoculum plugs to fresh PDA plates and observing the growth that developed within the next 2 days. The test fungi used in this study included but were not limited to Alternaria alternata, Botrytis cinerea, Sclerotinia rolfsii, Penicillium digitatum, Fusarium oxysporum f. sp. radicis-cucumerinum and Rhizoctonia solani.

B. cinerea = assay: as above; assay type: cell-based, Botrytis cinerea; settings: for MFC: Botrytis cinerea, read-out: M - Mortality, minimal concentration that killed the fungus; for MFC / M - Mortality, minimal concentration that killed the fungus: NA + number = still viable in the highest concentration tested (given as >); for I - Inhibition class: 2 days; for I - Inhibition, minimal concentration that inhibited the growth: concentration to which the class above belongs
Method: as §1, with “In exemplary procedures, the fungicidial activity of the compounds listed in Table 2 were examined by activity assays as follow: Petri dishes, 90 mm in diameter, with air volume of 80 mL, contained 10-12 mL of growth medium comprising potato dextrose agar (PDA) (Acumedia, Lansing, Michigan, USA) amended with tetracycline at 12 μg/mL. Each” for “Each”

P. digitatum = assay: as above; assay type: cell-based, Penicillium digitatum; settings: for MFC: Penicillium digitatum, read-out: M - Mortality, minimal concentration that killed the fungus; for MFC / M - Mortality, minimal concentration that killed the fungus: NA + number = still viable in the highest concentration tested (given as >); for I - Inhibition class: 2 days; for I - Inhibition, minimal concentration that inhibited the growth: concentration to which the class above belongs
Method: as §1, with “In exemplary procedures, the fungicidial activity of the compounds listed in Table 2 were examined by activity assays as follow: Petri dishes, 90 mm in diameter, with air volume of 80 mL, contained 10-12 mL of growth medium comprising potato dextrose agar (PDA) (Acumedia, Lansing, Michigan, USA) amended with tetracycline at 12 μg/mL. Each” for “Each”

A. alternata = assay: as above; assay type: cell-based, Alternaria alternata; settings: for MFC: Alternaria alternata, read-out: M - Mortality, minimal concentration that killed the fungus; for MFC / M - Mortality, minimal concentration that killed the fungus: NA + number = still viable in the highest concentration tested (given as >); for I - Inhibition class: 2 days; for I - Inhibition, minimal concentration that inhibited the growth: concentration to which the class above belongs
Method: as §1, with “In exemplary procedures, the fungicidial activity of the compounds listed in Table 2 were examined by activity assays as follow: Petri dishes, 90 mm in diameter, with air volume of 80 mL, contained 10-12 mL of growth medium comprising potato dextrose agar (PDA) (Acumedia, Lansing, Michigan, USA) amended with tetracycline at 12 μg/mL. Each” for “Each”

[1] = tested on: F. oxysporum f. sp. radicis-cucumerium; assay: as above; assay type: cell-based, Fusarium oxysporum f. sp. radicis-cucumerinum; settings: for MFC: Fusarium oxysporum, read-out: M - Mortality, minimal concentration that killed the fungus
Method: as §1

R. solani = assay: microbe, parasite or virus in culture; assay type: cell-based; settings: R. solani; for MFC: Rhizoctonia solani, read-out: M - Mortality, minimal concentration that killed the fungus
Method: as §1

[2] = tested on: Meloidogyne javanica second stage juveniles (J2s); assay: Nematocidal activity: viability of J2 nematodes after 2 days exposure to the compound in a sealed box; assay type: in vivo; settings: for Activity: the most effective concentration: concentration to which the class of the same cell belongs
Source text: In exemplary procedures, the sedentary root-knot nematode from the genus Meloidogyne javanica second stage juveniles (J2s) was propagated on greenhouse-grown nematode-susceptible tomato Lycopersicon esculentum cv. ‘Avigail 870’ (Hazera, Shikmim, Israel), and nematode eggs were bulk-extracted from the roots with 0.05% (v/v) sodium hypochlorite (NaOCl) followed by sucrose flotation and successive sievings through nylon filters of 300, 120, 60, and 30 μm mesh sizes (AD Sinun Technologies, Petach Tikvah, Israel). For hatching J2, extracted eggs were placed on 30-μm sieves (AD Sinun Technologies) in 0.01 M MES (2-(N-morpholino) ethanesulfonic acid hydrate) pH 6.5 buffer under aseptic conditions in darkness for 5 days, and hatching J2s were collected for further experiments.
Seven vials, each containing 300 J2 nematodes with 0.5 mL of 0.01 M 2-(N-morpholino)ethanesulfonic acid (MES) buffer, were exposed to cyclic ketone compounds in order to examine their nematocidal activity and reduction in viability. In addition, a humid environment in a sealed 1 L box was maintained by addition 5 ml of distilled H2O to a 50-mm Petri plate. The box was sealed after compound addition into each 50-mm Petri plate together with 5-250 mg of perlite particles and incubated for 2 days in the dark at 25±1° C. C5 and C6 saturated and α,β-unsaturated cyclic ketones were tested for their nematocidal activity. The J2 nematodes viability was examined following exposure to the cyclic ketone compounds, by a straightforward small-scale nematode extraction method, based on the traditional Baermann funnel method. Briefly, all nematode suspensions were loaded onto 30-μm (AD Sinun Technologies) filters (1.0-1.5 cm height, 1.1-2.0 cm^3 internal area), and the nematodes were washed twice with 300 μL of 0.01 M MES buffer in order to remove any residues. Then, filters holding nematodes were placed into 15 mL Falcon centrifuge tubes, each containing 900 μL of 0.01 M of MES buffer. These filters allow active passage of only living J2s while paralyzed or dead nematodes remain on top of the filter. The whole apparatus including the filter holding the nematodes and the Falcon tubes were placed in the dark for 3 h at 25±1° C. Then, the filters were removed and the viable nematodes, which were able to actively cross the filter toward the 0.01 M of MES buffer, were collected from the Falcon tube and counted using a Nematode Counting Slide (Chalex LLC, Portland, OR, USA) and a SV11 stereomicroscope (Zeiss, Jena, Germany).
Data were analyzed by the JMP 12 software package (SAS Inc., Cary, NC, USA). Mean numbers of viable J2s under various conditions were subjected to one-way analysis of variance (ANOVA), followed by the Tukey-Kramer multiple comparison test, with significance set at P<0.05.

test fungi = assay: Fungicidal activity assay on PDA, summaries over the test fungi; assay type: cell-based; settings: for fungicidal activity in words: comparison within the series
Method: as §1, with “In exemplary procedures, the fungicidial activity of the compounds listed in Table 2 were examined by activity assays as follow: Petri dishes, 90 mm in diameter, with air volume of 80 mL, contained 10-12 mL of growth medium comprising potato dextrose agar (PDA) (Acumedia, Lansing, Michigan, USA) amended with tetracycline at 12 μg/mL. Each” for “Each”

[3] = S. rolfsii, NA + number = still viable in the highest concentration tested (given as >)
[4] = NA + number = still viable in the highest concentration tested (given as >)
[5] = concentration to which the class above belongs

| Compound | MFC (S. rolfsii; [3]) [µg/mL] | MFC (B. cinerea) [µg/mL] | MFC (P. digitatum) [µg/mL] | MFC (A. alternata) [µg/mL] | MFC [1, 4] [µg/mL] | MFC (R. solani; [4]) [µg/mL] | other results |
| --- | --- | --- | --- | --- | --- | --- | --- |
| CC(C)CC(=O)CC(C)C [2,6-dimethyl-4-heptanone] | 2500 | > 2500 | > 2500 | > 2500 | – | – | – |
| CC=CCC#N [3-pentenenitrile] | > 25 | – | – | – | > 25 | > 25 | – |
| CCCC(=O)CCC [4-heptanone] | 2500 | 1250 | > 2500 | 2500 | – | – | – |
| CC(C)=CCCC(C)=CC=O [Citral] | 25 | 25 | > 125 | 25 | – | – | – |
| O=C1CCCCC1 [Cyclohexanone] | 500 | – | – | – | > 250 | > 250 | nematocidal activity in words ([2]; comparison within the series): nematocidal effects at substantially higher concentrations |
| CCCCCCCCCC=O [Decanal] | > 25 | – | – | – | > 25 | > 25 | – |
| CCOC(=O)C=Cc1ccccc1 [Ethyl cinnamate] | > 1250 | > 1250 | > 1250 | > 1250 | – | – | – |
| CC(C)=CCCC(C)=CCCC(C)=CCO [Farnesol] | > 1250 | > 1250 | > 1250 | > 1250 | – | – | – |
| CCCCCCCCCCCC=O [Lauric aldehyde] | – | – | – | – | – | – | I - Inhibition class ([1]; 2 days): NI (<50% growth inhibition); M - Mortality, minimal concentration that killed the fungus [1, 4]: > 25 ppm; I - Inhibition, minimal concentration that inhibited the growth [1, 5]: 25 ppm; I - Inhibition class (S. rolfsii; S. rolfsii): NI (<50% growth inhibition); M - Mortality, minimal concentration that killed the fungus (S. rolfsii; [3]): > 25 ppm; I - Inhibition, minimal concentration that inhibited the growth (S. rolfsii; S. rolfsii): 25 ppm; fungicidal activity in words (test fungi): lower activity; I - Inhibition class (R. solani; 2 days): NI (<50% growth inhibition); M - Mortality, minimal concentration that killed the fungus (R. solani; [4]): > 25 ppm; I - Inhibition, minimal concentration that inhibited the growth (R. solani; [5]): 25 ppm |
| CCCCC/C=C/C(=O)OC [Methyl trans-2-octenoate] | 125 | 125 | 125 | 125 | – | – | concentration that completely inhibited the fungi growth (test fungi; dependent on the fungus tested): 125 ppm |
| CCCCCCCCC=O [Nonanal] | 25 | – | – | – | > 25 | > 25 | – |
| CCCCCCCC=O [Octanal] | > 25 | – | – | – | > 25 | 12.5 | fungicidal activity in words (test fungi): less fungicidal efficiency |
| COc1ccc(C=O)cc1 [p-Anisaldehyde] | – | – | – | – | – | – | MFC (S. rolfsii): > 1250 µg/mL |
| CCCCCCC/C=C/C=O [trans-2-decenal] | – | – | – | – | – | – | fungicidal activity in words (test fungi): lower activity |
| CCCC/C=C/C=O [trans-2-heptenal] | 6.25 | 125 | 12.5 | 12.5 | 12.5 | 12.5 | concentration that completely inhibited the fungi growth (test fungi; dependent on the fungus tested): 6.25-25 ppm; concentrations at which fungi were not viable (test fungi; dependent on the fungus tested): 6.25-125 ppm |
| CCC/C=C/C=O [trans-2-hexen-1-al] | 12.5 | – | – | – | 25 | 12.5 | – |
| CCCCCC/C=C/C=O [trans-2-nonenal] | > 25 | – | – | – | 6.25 | > 25 | – |
| CCCCC/C=C/CO [trans-2-octen-1-ol] | 80 | 500 | 50 | 125 | – | – | concentration that completely inhibited the fungi growth (test fungi; dependent on the fungus tested): 50 ppm |
| CCCCC/C=C/C(=O)O [trans-2-octenoic acid] | > 125 | > 125 | > 125 | > 125 | – | – | – |
| CC/C=C/C=O [trans-2-pentenal] | 25 | 25 | 25 | 25 | 25 | 25 | – |
| CCCC/C=C/C(C)=O [trans-3-octen-2-one] | 50 | 50 | 50 | 50 | – | – | concentration that completely inhibited the fungi growth (test fungi; dependent on the fungus tested): 50 ppm |
| O=C/C=C/c1ccccc1 [trans-cinnamaldehyde] | > 1250 | – | – | – | – | – | – |
| R-(−)-Carvone | – | – | – | – | – | – | Activity: the most effective concentration [2]: 250 ppm; I - Inhibition class (S. rolfsii; S. rolfsii): MI (Medium inhibition - 76-99% of growth inhibition); M - Mortality, minimal concentration that killed the fungus (S. rolfsii; [3]): > 1250 ppm; I - Inhibition, minimal concentration that inhibited the growth (S. rolfsii; S. rolfsii): 125 ppm; I - Inhibition class (B. cinerea): MI (Medium inhibition - 76-99% of growth inhibition); M - Mortality, minimal concentration that killed the fungus (B. cinerea): > 1250 ppm; I - Inhibition, minimal concentration that inhibited the growth (B. cinerea): 25 ppm; I - Inhibition class (P. digitatum): MI (Medium inhibition - 76-99% of growth inhibition); M - Mortality, minimal concentration that killed the fungus (P. digitatum): > 1250 ppm; I - Inhibition, minimal concentration that inhibited the growth (P. digitatum): 625 ppm; I - Inhibition class (A. alternata): SI (Strong inhibition - 100% of growth inhibition compared to control.); M - Mortality, minimal concentration that killed the fungus (A. alternata): > 1250 ppm; I - Inhibition, minimal concentration that inhibited the growth (A. alternata): 125 ppm |
| trans-2-heptanol | – | – | – | – | – | – | Activity: reduction in J2s viability relative to non exposed control J2s (class) ([2]; at the concentration given, 2 days incubation): L (51-75% reduction in viability); Activity: the most effective concentration [2]: 500 ppm; I - Inhibition class (S. rolfsii; S. rolfsii): SI (Strong inhibition - 100% of growth inhibition compared to control.); M - Mortality, minimal concentration that killed the fungus (S. rolfsii; [3]): 500 ppm; I - Inhibition, minimal concentration that inhibited the growth (S. rolfsii; S. rolfsii): 125 ppm; I - Inhibition class (B. cinerea): SI (Strong inhibition - 100% of growth inhibition compared to control.); M - Mortality, minimal concentration that killed the fungus (B. cinerea): 500 ppm; I - Inhibition, minimal concentration that inhibited the growth (B. cinerea): 125 ppm; I - Inhibition class (P. digitatum): SI (Strong inhibition - 100% of growth inhibition compared to control.); M - Mortality, minimal concentration that killed the fungus (P. digitatum): 1250 ppm; I - Inhibition, minimal concentration that inhibited the growth (P. digitatum): 125 ppm; I - Inhibition class (A. alternata): SI (Strong inhibition - 100% of growth inhibition compared to control.); M - Mortality, minimal concentration that killed the fungus (A. alternata): 500 ppm; I - Inhibition, minimal concentration that inhibited the growth (A. alternata): 125 ppm |
